Results published in PMC2972649 (Journal of Medicinal Chemistry, 2010).

How the values were obtained:
Nek2 = molecular target: T1, Nek2 (Homo sapiens, UniProt P51955); type: biochemical; conditions: for fold improvement in Nek2 potency on substitution of the thiophene: comparator not given
T1 sequence (P51955 1-445): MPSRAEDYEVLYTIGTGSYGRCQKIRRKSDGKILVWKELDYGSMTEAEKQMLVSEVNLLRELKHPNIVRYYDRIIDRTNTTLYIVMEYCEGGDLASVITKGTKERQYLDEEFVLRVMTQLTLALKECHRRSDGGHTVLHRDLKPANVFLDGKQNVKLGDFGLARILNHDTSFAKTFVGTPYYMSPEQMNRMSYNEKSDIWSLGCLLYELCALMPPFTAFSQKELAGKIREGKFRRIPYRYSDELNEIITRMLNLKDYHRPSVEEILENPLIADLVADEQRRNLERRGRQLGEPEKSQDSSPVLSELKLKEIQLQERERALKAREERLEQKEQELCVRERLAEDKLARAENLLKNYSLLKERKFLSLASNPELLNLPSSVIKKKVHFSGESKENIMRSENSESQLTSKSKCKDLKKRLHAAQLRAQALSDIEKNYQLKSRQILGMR

Nek1 = molecular target: T2, Nek1 (Homo sapiens, UniProt Q96PY6); assay: Nek1 Caliper kinase assay; type: biochemical; conditions: Nek2 versus Nek1
T2 sequence (Q96PY6 1-505 limits assumed): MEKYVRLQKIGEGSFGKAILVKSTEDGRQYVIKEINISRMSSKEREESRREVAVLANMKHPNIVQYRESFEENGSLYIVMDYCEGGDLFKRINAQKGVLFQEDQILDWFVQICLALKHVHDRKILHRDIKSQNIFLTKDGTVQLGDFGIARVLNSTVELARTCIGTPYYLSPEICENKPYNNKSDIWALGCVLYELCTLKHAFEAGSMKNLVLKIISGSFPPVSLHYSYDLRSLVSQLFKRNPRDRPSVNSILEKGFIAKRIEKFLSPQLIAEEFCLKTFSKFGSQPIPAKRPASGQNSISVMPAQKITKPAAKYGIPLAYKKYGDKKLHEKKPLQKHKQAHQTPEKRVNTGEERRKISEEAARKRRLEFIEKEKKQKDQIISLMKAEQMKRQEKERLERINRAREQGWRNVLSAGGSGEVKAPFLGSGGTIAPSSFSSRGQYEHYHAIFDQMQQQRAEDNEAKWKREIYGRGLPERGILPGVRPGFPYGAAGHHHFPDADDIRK

COc1cccc(-c2cnc(N)c(N3CCC(C(=O)O)CC3)n2)c1 [Compound 5]
fold loss of Nek2 potency compared to hit 2 (Nek2): 4-5 fold

Nc1nccnc1N1CCC(C(=O)O)CC1 [Compound 8]
fold loss of Nek2 potency compared to hit 2 (Nek2): approximately 50 fold

COc1cc(-c2cnc(N)c(N3CC[C@H](C(=O)O)[C@H](C)C3)n2)cc(OC)c1OC [Compound 20, (−)-(3S,4S)-1-(3-Amino-6-(3,4,5-trimethoxyphenyl)pyrazin-2-yl)-3-methylpiperidine-4-carboxylic Acid]
fold loss of Nek2 potency compared to hit 2 (Nek2): 10

CCc1ccsc1-c1cnc(N)c(N2CCC(C(=O)O)CC2)n1 [Compound 35]
selectivity against Nek1 (Nek1): approximately 10 fold | fold improvement in Nek2 potency on substitution of the thiophene (Nek2): approximately 4 fold

Nc1ncc(-c2sccc2C2CC2)nc1N1CCC(C(=O)O)CC1 [Compound 36]
fold improvement in Nek2 potency on substitution of the thiophene (Nek2): approximately 4 fold
